Laboratory results: patent publication US12698463B2, “Spatially controlled fabrication of multi-spheroid tissues using magnetic bioprinting” (The Board of Trustees of the Leland Stanford Junior …, priority 2022, dated 2026)

What was measured:
neural organoids [1] = assay: Cleaved caspase-3 immunofluorescence in adjacent neural organoids of the assembloids; type: cell-based, human; details: 200 nM panobinostat, neural organoids fused to DIPG organoids
Procedure: Organoids and assembloids were fixed in 4% PFA for 2 hours at 4° C. They were then washed three times with DPBS, for 15 min each, and transferred to a 30% sucrose solution in DPBS for 24-48 hours at 4° C. Once the organoids or assembloids sank in the sucrose solution, they were embedded in a 1:1 mixture of OCT (Fisher Scientific) and 30% sucrose in DPBS. They were then snap frozen on dry ice and stored at −80° C. A cryostat (Leica) was used to cut 50 μm sections for immunostaining.
Cryosections were washed with DPBS to remove excess OCT, then permeabilized with 0.25% Triton X-100 (Thermo Fisher) in DPBS (DPBS-T) for 1 hour and blocked with 5% goat serum (Gibco), 5% bovine serum albumin (BSA, Sigma), and 0.5% Triton X-100 in DPBS for 3 hours, all at RT. Samples were stained with primary antibodies for GFP, (1:200, Invitrogen a11122), cleaved caspase-3 (1:400, Cell Signaling 9661), and histone H3 mutated K27M (1:400, Abcam ab190631). Primary antibodies were diluted in 2.5% goat serum, 2.5% BSA, and 0.5% Triton X-100 in DPBS and incubated with the samples overnight at 4° C., Next, the samples were washed with DPBS-T (3×30 min, RT) and incubated with secondary antibody Alexa Fluor 488 (1:500, Invitrogen, A-11034) and 4′,6-diamidino-2-phenylindole (DAPI, 5 mg/mL stock, 1:2000, Invitrogen) in the same antibody dilution solution overnight at 4° C. […]

neural organoids [2] = assay: Neural organoid viability (calcein AM / ethidium homodimer) after cellulase; type: cell-based, human; details: 0.5 wt % cellulase treatment over time
Procedure: To characterize viability, organoids were submerged in a solution consisting of DPBS supplemented with 2 μM calcein AM and 4 µM ethidium homodimer for 20 min at 37° C. The samples were washed with DPBS and imaged with an epifluorescent microscope (Leica Microsystems, THUNDER Imager 3D Cell Culture) and confocal microscope (Leica SPE).

[3] = Cellulase-mediated removal of residual CNF on extracted neural organoids; details: 0.5 wt % cellulase, over 72 hours
Procedure: To characterize cellulase-mediated CNF degradation after neural organoid release from the support scaffold, neural organoids were first cultured in 0.5 wt % CNF support bath for 1 day and released through diluting the support bath with DPBS. A 0.5 wt % cellulase (Sigma) solution, made up in neural medium, was filtered through a 0.22 μm filter, warmed to 37° C., and added to the organoids with daily medium changes. Organoids were imaged every day with an epifluorescent microscope (Leica Microsystems, THUNDER Imager 3D Cell Culture). The area of residual CNF on the organoid surface was manually measured with ImageJ (NIH, v.2.3.0/1.53q).

[4] = Cellulase-mediated CNF support scaffold degradation (rheology); details: range of cellulase concentrations, 0.5 wt % CNF, over time
Procedure: For measurements of cellulase-mediated CNF support scaffold degradation, cellulase (Sigma) was dissolved in DMEM/F12 (Gibco) and added atop 0.5 wt % CNF in a 1:4 ratio by volume to approximate the ratio of media to CNF support within the bioprinting chip. All samples were incubated in a humidified 37° C. incubator for three days. Depending on the downstream measurement, cellulase solutions, as well as non-cellulase containing DMEM/F12 controls, were either changed every day or allowed to incubate over the full three days without a media change.
Viscosity and storage moduli were obtained with an AR-G2 (TA Instruments) stress-controlled rheometer (20 mm 1° cone and plate geometry with a 28 μm gap). To observe the effect of cellulase on the viscosity of CNF over 72 hours, samples were loaded onto the stage at 37° C. for a 5 min time sweep with 1% oscillatory strain and 1 rad/s angular frequency. This was followed by a frequency sweep from 0.1 to 100 Hz at 1% strain. To measure the storage modulus, samples were loaded onto the stage at 2 hours, 4 hours, 6 hours, 24 hours, 48 hours, and 72 hours and subjected to a frequency sweep at 1 rad/s angular frequency.

| Compound | cleaved caspase-3 expression (apoptosis) in adjacent neural organoids (neural organoids [1]) | cleaved caspase-3 expression (apoptosis) in adjacent neural organoids (neural organoids [1]; listed as Panobinostat) | organoid viability (neural organoids [2]) | residual CNF removed from organoid surface [3] | viscosity and storage modulus of CNF support after cellulase [4] |
| --- | --- | --- | --- | --- | --- |
| Cc1[nH]c2ccccc2c1CCNCc1ccc(/C=C/C(=O)NO)cc1 [panobinostat] | did not exhibit substantially increased cleaved caspase-3 expression | does not induce substantial apoptosis |  |  |  |
| cellulase |  |  | does not affect organoid viability | over 98% | stepwise decreases in both viscosity and storage modulus |
